This is an account of results in ChEMBL document CHEMBL1201862, “PubChem BioAssay data set” (2004).

Active and inactive are the calls of the source. Rule as the data show it, for most assays here: actives have a measured EC50 and inactives only a lower limit.

What is called IC50 is the concentration at which inhibition is half-maximal. As usually defined, the AC50 is the concentration giving half of the maximal activity seen.

Experiment [1] addresses Luciferin 4-monooxygenase (Photinus pyralis, UniProt P08659). Briefly: inhibition of purified Photinus pyralis luciferase – biochemical, luminescence, dose response (AID 1891).
Experiment [2] can be described thus: Luminescence Cell-Based Dose Confirmation HTS to Identify Inhibitors of Platelet Dense Granule Release. [Related pubchem assays: 1663 (Primary HTS), 1678 (Summary of Project)]. It is filed as functional.
The target of experiment [3] is T1, Calpain-2 catalytic subunit (Sus scrofa, UniProt P43367).
T1 sequence (P43367 whole entry): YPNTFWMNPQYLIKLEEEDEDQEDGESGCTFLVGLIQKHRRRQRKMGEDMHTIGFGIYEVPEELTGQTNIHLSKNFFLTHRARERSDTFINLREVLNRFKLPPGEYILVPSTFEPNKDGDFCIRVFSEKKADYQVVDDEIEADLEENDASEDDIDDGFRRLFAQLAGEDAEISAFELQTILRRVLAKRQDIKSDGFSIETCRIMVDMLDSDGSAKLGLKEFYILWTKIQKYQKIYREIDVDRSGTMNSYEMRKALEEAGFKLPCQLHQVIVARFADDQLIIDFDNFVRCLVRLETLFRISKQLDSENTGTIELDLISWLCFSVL
Briefly: m-calpain protease blockers, concentration series – biochemical, fluorogenic peptide substrate, dose response (AID 1420). It is filed as functional.

Experiment [4] is described as follows: luciferase reporter signal suppression in cells – H4 neuroglioma cells, luminescence, dose response (AID 1990). In kind it is functional, cell-based.
Experiment [5] is described as follows: alpha-synuclein stem-loop luciferase translation blockers – H4 neuroglioma cells, luminescence, confirmation (AID 1988). In kind it is functional, cell-based.
Experiment [6] can be described thus: Luminescence Cell-Based Dose Response HTS to Identify Inhibitors of 5'UTR Stem-Loop Driven Prion Protein mRNA Translation in H4 Neuroglioblastoma Cells. [Related pubchem assays: 1827 (Project Summary), 1813 (Primary HTS)]. In kind it is functional.
Experiment [7] is described as follows: NIH-3T3 fibroblast cytotoxicity, dose response, cytotoxicity control, cell-based, fluorescence, Alamar Blue, secondary assay (AID 2327).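 Also: NIH-3T3 mouse fibroblasts cultured with fluconazole at 8 µg/mL.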 It is filed as functional. In general terms: Resazurin is reduced to fluorescent resorufin, in cell work by metabolically active cells.
A short description of experiment [8]: fluconazole-exposed Candida albicans growth modulators – fluorescence, retest, confirmation (AID 2467). It is filed as functional, cell-based.
Experiment [9] relates to H9c2. Briefly: cells. In kind it is functional, cell-based. Conditions: Rattus norvegicus, H9c2, Myocardium.
The test system of experiment [10] is Streptococcus. Briefly: GAS UMAA2166 growth inhibition – luminescence, BacTiterGlo, counter-screen for streptokinase expression inhibitor project, dose response (AID 1915).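 Also: potency for reduction of bacterial viability or growth.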 In kind it is functional, organism-based. On the technique in general: A counterscreen serves to expose hits that act by an unwanted route or on another target.
The subject of experiment [11] is Streptococcus sp. 'group A'. Briefly: Streptococcus pyogenes SK(-)GAS viability under kanamycin – luminescence, BacTiterGlo, confirmation, counter-screen for streptokinase expression inhibitor project, dose response (AID 1900). It is filed as functional, organism-based.
Experiment [12] has as its target T2, Streptokinase A (Streptococcus pyogenes serotype M1, UniProt P10520).
T2 sequence (P10520 whole entry): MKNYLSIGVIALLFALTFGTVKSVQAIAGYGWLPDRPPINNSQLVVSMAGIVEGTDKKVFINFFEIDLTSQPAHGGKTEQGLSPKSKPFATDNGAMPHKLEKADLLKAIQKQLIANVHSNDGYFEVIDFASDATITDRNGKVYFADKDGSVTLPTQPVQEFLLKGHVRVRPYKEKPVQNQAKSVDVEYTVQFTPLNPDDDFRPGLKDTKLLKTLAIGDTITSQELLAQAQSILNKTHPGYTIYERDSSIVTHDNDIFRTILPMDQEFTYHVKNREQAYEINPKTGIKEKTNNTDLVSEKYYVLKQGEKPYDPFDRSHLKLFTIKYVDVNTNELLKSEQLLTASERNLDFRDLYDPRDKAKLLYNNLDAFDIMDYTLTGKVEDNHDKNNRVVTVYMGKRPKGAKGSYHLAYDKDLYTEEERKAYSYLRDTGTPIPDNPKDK
Nature of the experiment: viability-normalized secreted streptokinase activity reduction – plasminogen activation absorbance, OD405, dose response (AID 1914).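 Also: secreted streptokinase activity via plasminogen activation per viability signal from cell pellet.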 In kind it is functional, Streptococcus pyogenes M1 GAS.

The target in experiment [13] is T3, Corticotropin-releasing factor receptor 2/Corticotropin-releasing factor-binding protein (Homo sapiens, UniProt P24387+Q13324).
T3 sequence (Q13324 whole entry): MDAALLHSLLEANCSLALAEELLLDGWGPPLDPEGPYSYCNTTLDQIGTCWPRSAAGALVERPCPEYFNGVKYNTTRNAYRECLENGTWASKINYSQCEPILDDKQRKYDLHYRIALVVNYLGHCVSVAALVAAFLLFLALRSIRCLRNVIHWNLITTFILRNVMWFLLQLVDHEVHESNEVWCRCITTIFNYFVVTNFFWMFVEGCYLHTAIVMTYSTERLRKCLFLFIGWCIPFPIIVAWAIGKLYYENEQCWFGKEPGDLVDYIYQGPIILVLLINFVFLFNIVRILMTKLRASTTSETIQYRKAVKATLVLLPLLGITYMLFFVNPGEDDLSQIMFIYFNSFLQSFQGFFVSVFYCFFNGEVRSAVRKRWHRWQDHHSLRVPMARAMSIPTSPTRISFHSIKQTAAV
T3 sequence (P24387 whole entry): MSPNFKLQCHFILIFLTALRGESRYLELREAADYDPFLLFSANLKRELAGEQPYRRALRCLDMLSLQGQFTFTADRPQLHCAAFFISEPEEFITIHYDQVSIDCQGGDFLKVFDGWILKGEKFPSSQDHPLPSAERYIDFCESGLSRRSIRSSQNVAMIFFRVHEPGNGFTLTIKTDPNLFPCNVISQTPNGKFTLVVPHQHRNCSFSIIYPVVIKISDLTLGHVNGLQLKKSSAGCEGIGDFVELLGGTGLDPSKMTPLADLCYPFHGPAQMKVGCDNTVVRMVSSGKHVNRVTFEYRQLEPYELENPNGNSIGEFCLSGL
Nature of the experiment: activators of CRF receptor 2 with binding protein – uHTS hits, confirmation (AID 602473). As to conditions: read-out: EC50_Mean. It is filed as functional.

Experiment [14] deals with Paired box protein Pax-8 (Homo sapiens, UniProt Q06710). Nature of the experiment: PAX8 transcriptional activity inhibition in RMG-I – RMG-I cells, luciferase, cherry-pick, dose response (AID 687027).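 Also: luciferase reporter driven by Pax8 target thyroperoxidase promoter measured by SteadyGlo luminescence.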 In kind it is functional, cell-based.
Paired box protein Pax-8, sequence (Q06710 whole entry): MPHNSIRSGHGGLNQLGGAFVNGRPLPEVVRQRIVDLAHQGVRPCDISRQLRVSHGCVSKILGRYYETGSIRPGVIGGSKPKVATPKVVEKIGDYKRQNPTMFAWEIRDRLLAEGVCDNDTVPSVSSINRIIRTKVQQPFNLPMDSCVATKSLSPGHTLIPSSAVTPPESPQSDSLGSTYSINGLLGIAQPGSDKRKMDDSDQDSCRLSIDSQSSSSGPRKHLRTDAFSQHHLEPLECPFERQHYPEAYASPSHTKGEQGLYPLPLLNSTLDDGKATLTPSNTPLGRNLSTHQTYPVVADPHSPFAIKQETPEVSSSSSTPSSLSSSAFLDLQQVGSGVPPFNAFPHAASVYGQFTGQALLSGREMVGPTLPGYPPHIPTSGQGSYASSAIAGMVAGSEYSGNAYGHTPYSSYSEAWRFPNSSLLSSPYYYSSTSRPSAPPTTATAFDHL

Luciferin 4-monooxygenase, sequence (P08659 whole entry): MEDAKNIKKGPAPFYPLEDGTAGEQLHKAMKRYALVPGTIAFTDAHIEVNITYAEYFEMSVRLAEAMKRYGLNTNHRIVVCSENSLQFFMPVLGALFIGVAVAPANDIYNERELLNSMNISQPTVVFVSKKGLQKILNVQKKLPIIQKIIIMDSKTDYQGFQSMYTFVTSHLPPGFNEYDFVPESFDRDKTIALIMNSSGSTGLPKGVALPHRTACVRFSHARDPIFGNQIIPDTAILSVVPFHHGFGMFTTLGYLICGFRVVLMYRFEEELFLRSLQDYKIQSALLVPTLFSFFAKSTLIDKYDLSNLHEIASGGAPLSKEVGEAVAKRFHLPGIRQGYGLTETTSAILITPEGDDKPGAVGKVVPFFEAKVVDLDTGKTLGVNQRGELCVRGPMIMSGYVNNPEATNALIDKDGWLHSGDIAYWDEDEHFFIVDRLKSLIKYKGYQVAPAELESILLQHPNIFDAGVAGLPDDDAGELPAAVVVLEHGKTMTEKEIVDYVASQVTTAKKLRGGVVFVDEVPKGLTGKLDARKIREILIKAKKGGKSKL

Consider `COc1ccc(NC(=O)CSc2ccccn2)c([N+](=O)[O-])c1`, for which the EC50 in [1] and in experiment [2] was > 112 µM (not active) throughout. `O=C(NCCc1csc(-c2cccnc2)n1)c1ccc(Br)o1`: in [3], the IC50 was < 0.4 µM (not active). For the molecule `CC(C)OC(=O)c1cc2c(ccn2C)n1CC(=O)N(Cc1ccccc1)c1ccccc1`, the EC50 is > 120 µM (not active) in experiment [4], 13.7 µM (active) in experiment [5] and > 120 µM (not active) in experiment [6]. As to `Cc1ccc(CNC(=O)CN=C(S)N(Cc2ccccc2)Cc2ccccc2F)cc1`, the concentration for half-maximal inhibition (IC50) in experiment [3] is given as 5.45 µM (not active). On the same count and under the same terms, the result for `CCOC(=O)c1c(NC(=O)CSc2nnnn2C)sc(C)c1-c1ccc(C)cc1` reads 5.1 µM (not active). For the molecule `CCOC(=O)c1c(C)[nH]c(C)c1S(=O)(=O)NCC(=O)Nc1ccccn1`, the EC50 in experiment [1] and in experiment [2] was > 112 µM (not active) each time. In the case of `CCCCNCCOCCOc1ccc(F)cc1`, the EC50 in [1] and in [2] was > 112 µM (not active) each time. For the molecule `COc1ccc(-n2c(C)c(C(C)=O)c(C(C)=O)c2C)cc1OC`, the EC50 in [1] and in experiment [2] was > 112 µM (not active) each time. On to `O=C(NCC(=O)N(CC1CCCO1)C(C(=O)NC1CCCCC1)c1ccccc1)c1ccco1` (stereo not given), for which the values for the EC50 in experiment [7] and in [8] were > 150 µM (inactive) and 6.52 µM (active), respectively. With `CCCC(=O)C1=C(N2CCCC2)CC(C)(C)C(C(=O)OC)C1=O` (stereo not given), the EC50 in experiment [1] and in experiment [2] was > 112 µM (not active) in each case. Take `COc1ccc(CSc2ncnc3sccc23)cc1F`: the EC50 in experiment [1] and in experiment [2] was > 112 µM (not active) in each case.

Consider `CCOc1ccccc1C(=O)N1c2ccccc2Sc2ccccc21`, for which the half-inhibitory concentration (IC50) in [3] is 4.06 µM (not active). For the molecule `Cc1cc(OCC(=O)NNC(=S)NC(=O)c2cccs2)ccc1Cl`, the results for the EC50 in experiment [7] and in [8] were 74.8 µM (active) and 2.09 µM (active), respectively. The corresponding values for `O=C(COS(=O)c1ccccc1)Nc1cc(Cl)ccc1N1CCOCC1` (stereo not given) are > 160 µM (inconclusive) and 2.82 µM (active). With `Cn1c(NCc2ccco2)nc2c1c(=O)n(Cc1ccc(Cl)cc1)c(=O)n2C`, the 50% inhibitory concentration (IC50) was 1.88 µM (not active) in experiment [3] and > 79 µM (inactive) in experiment [9]. In addition, the values for the EC50 in experiment [4] and in experiment [5] were 16.9 µM (active) and > 120 µM (not active), respectively. As for `COc1ccc(NC(=O)c2noc(C(C)C)c2[N+](=O)[O-])cc1`, the IC50 in experiment [3] was 9.64 µM (not active).

For `COc1ccccc1NC(=O)CSc1nc(O)c2c(C)cc(C)nc2n1`, the EC50 in experiment [1] and in experiment [2] was > 112 µM (not active) throughout. `CNC(=O)COC(=O)c1c2c(nc3ccccc13)CCC2`: the EC50 in experiment [7] was > 160 µM (inactive); in [8], > 38 µM (not active). With `c1ccc(-c2cn(-c3ccccc3)c3ncnc(N4CCCCC4)c23)cc1`, the IC50 in experiment [3] is reported as 5.36 µM (not active). Consider `COc1ccc(NC(=S)N(CCCN2CCOCC2)Cc2cn(C)c3ccccc23)cc1`, for which the IC50 in [3] is 0.737 µM (not active). For the molecule `CCCC1=NN2C(=N)/C(=C\c3cc(C)n(-c4cc(C)cc(C)c4)c3C)C(=O)N=C2S1`, the EC50 is 18.7 µM (active) in experiment [10], 1.63 µM (active) in experiment [11], 5.85 µM (active) in experiment [12] and 9.04 µM (active) in [13]. Regarding `O=C(O)C1C2C=CC(O2)C1C(=O)NCCCn1ccnc1` (stereo not given), the EC50 in experiment [1] and in experiment [2] was > 112 µM (not active) each time. Take `CN(C)C(=O)C(=O)c1c(-c2ccccc2)cc2ccccn12`: in [3], the IC50 is on record as > 50 µM (not active). Regarding `O=C(Nc1ccncc1)c1ccc(Br)cc1`, the figures for the EC50 in experiment [7] and in [8] were > 150 µM (inactive) and > 38 µM (not active), respectively. For the molecule `Cc1nc2ncnn2c(Nc2ccc3c(c2)OCO3)c1Cc1ccccc1`, the EC50 is 43.7 µM (active) in [4], > 120 µM (not active) in experiment [5] and > 120 µM (not active) in experiment [6]. Regarding `COc1ccc(C(=O)NNC(=S)NC(=O)c2ccc(OC)cc2)cc1`, the EC50 in experiment [13] is 5.09 µM (active). With `Cc1ccc(C)c(N(C(=O)Cc2cccs2)C(C(=O)NC2CCCC2)c2ccc(C)o2)c1` (stereo not given), in experiment [3], the 50% inhibitory concentration (IC50) is reported as 7.05 µM (not active).

Regarding `O=C(c1ccco1)N1CCCN(Cc2nc(-c3cccs3)no2)CC1`, the figures for the EC50 in [1] and in experiment [2] were > 112 µM (not active) and 25 µM (active), respectively. Regarding `CSc1ccc(/C=C(/NC(=O)c2ccco2)C(=O)N2CCCCC2)cc1`, the EC50 in experiment [1] is > 112 µM (not active); in experiment [2], 17.5 µM (active). Turning to `N=C(NOC(=O)c1ccc2ccccc2c1)c1ccccn1`, the EC50 in [1] was 0.596 µM (active); in [2], 1.53 µM (active). Consider `Cc1onc(-c2ccccc2)c1C(=O)NC(=S)NNC(=O)c1cccnc1`, for which the EC50 in experiment [7] is > 160 µM (inactive); in experiment [8] it was > 38 µM (not active).

As to `CC/C(=N\CCc1c(C)[nH]c2ccc(OC(F)(F)F)cc12)C1=C(O)CC(c2ccccc2)CC1=O` (stereo not given), the values for the EC50 in [4], in [5] and in experiment [6] were 10.7 µM (active), 8.9 µM (active) and 16.8 µM (active), respectively.

As for `Cc1ccc(S(=O)(=O)Nc2ccc3c(c2)C(=O)N([C@@H](C)CO)C[C@@H](C)[C@@H](CN(C)Cc2ccc(C(F)(F)F)cc2)OCCCC[C@H](C)O3)cc1`, the AC50 in experiment [14] is 9.16 µM (active). Take `C[C@@H]1CN([C@@H](C)CO)C(=O)Cc2cc(NC(=O)Nc3ccc(F)cc3)ccc2O[C@H]1CN(C)Cc1ccc(Cl)c(Cl)c1`: the AC50 in experiment [14] is 5.72 µM (active). For the molecule `O=C(N/N=C/c1sc(N2CCCCC2)nc1-c1cccs1)c1cccnc1`, the EC50 in experiment [7] is > 160 µM (inconclusive); in experiment [8], > 38 µM (not active).
